The values that follow come from patent US9676771B2, “Compounds for inhibiting drug-resistant strains of HIV-1 integrase” (priority 2013, dated 2017).

Where two headings read alike, the source gives them in different places.

The target in one test is HIV-1 integrase (Human immunodeficiency virus type 1 group M subtype B, UniProt P12497). Kind of test: biochemical. Format: biochemical. In a few lines: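 Compounds or DMSO added to 20 nM DNA and 400 nM integrase in 50 mM MOPS pH 7.2, 7.5 mM MgCl2, 14 mM 2-mercaptoethanol; 2 h at 37° C, quenched with formamide/SDS loading buffer. Products resolved on gels, imaged and quantified by densitometry.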

Test [1] concerns HIV-1 constructs containing wild-type IN. Nature of the test: microbe, parasite or virus in culture. Format: cell-based.
In test [2] the test system is HIV-1 constructs containing mutant IN G140S-Q148H. Kind of test: microbe, parasite or virus in culture. Format: cell-based. Particulars: for EC50: Human immunodeficiency virus 1. In a few lines: (§1)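 Single-round infectivity assay using luciferase-reporter pNLNgoMIVR−ΔEnv.LUC virus carrying site-directed integrase mutants, produced in 293 cells. Activity normalized to infectivity without compound; EC50 from regression fit.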

Test [3] deals with HIV-1 constructs containing mutant IN N155H. Kind of test: microbe, parasite or virus in culture. To be noted: for EC50: Human immunodeficiency virus 1. Format: cell-based. In a few lines:
as §1

Test [4] deals with HIV-1 constructs containing mutant IN Y143R. Kind of test: microbe, parasite or virus in culture. Format: cell-based. Particulars: for EC50: Human immunodeficiency virus 1. The gist of the method:
as §1

The test system of test [5] is HIV-1 constructs containing mutant IN G118R. Nature of the test: microbe, parasite or virus in culture. Format: cell-based. To be noted: for EC50: Human immunodeficiency virus 1. The method, then:
Single-Round HIV-1 Infectivity Assay.
Human embryonyl kidney cell culture cell line 293 was acquired from the American type Culture Collection (ATCC).
[…]. […] The virus-containing supernatants were then harvested, clarified by low-speed centrifugation, filtrated, and diluted for preparation in infection assays. […] After compound incorporation and activation in the cell, 100 μL of virus-stock diluted to achieve a maximum luciferase signal between 0.2 and 1.5 RLUs was added to each well and further incubated at 37° C. for 48 hrs. […] Activity was normalized to infectivity in the absence of target compounds. KaleidaGraph (Synergy Software, Reading, Pa.) was used to perform regression analysis on the data. EC50 values were determined from the fit model.
pNLNgoMIVR^−ΔEnv.LUC has been described previously (Zhao et al. 2008). The integrase codon reading frame was removed from pNLNgoMIVR^−ΔEnv LUC (between KpnI and SalI sites) and placed between the KpnI and SalI sites of pBluescript II KS+. Using that construct as the wild-type template, we prepared the following HIV-1 Integrase-resistant mutants via the QuikChange II XL (Stratagene, La Jolla, Calif.) site-directed mutagenesis protocol: H51Y, T66I, E92Q, G118R, Y143R, Q148H, Q148K, N155H, R263K, G140S+Q148H, G140A+Q148K, E138K+Q148K, and H51Y+R263K. The following sense with cognate antisense (not shown) oligonucleotides (Integrated DNA Technologies, Coralville, Iowa) were used in the mutagenesis: H51Y, 5′-[…]-3; T66I, 5′-[…]-3′; E92Q, 5′-[…]-3′; G118R, 5′-[…]-3′; E138K, 5′-[…]-3; G140A, 5′-[…]-3; G140S, 5′-[…]-3′; Y143R, 5′-[…]-3′; Q148H, 5′-[…]-3′; Q148K, 5′-[…]-3; N155H, 5′-[…]-3′; R263K 5′-[…]-3′. The double mutation G140S+Q148H was constructed by using the previously generated Q148H mutant and the appropriate oligonucleotide for the 2nd mutation, G140S. The double mutation G140A+Q148K was made by using the Q148K mutant and the appropriate oligonucleotide for the 2nd mutation, G140A. The double mutation E138K+Q148K was made by using the Q148K mutant and the appropriate oligonucleotide for the 2nd mutation, E138K. The double mutation H51Y+R263K was constructed by using the previously generated H51Y mutant and the appropriate oligonucleotides for the 2nd mutation, R263K. The DNA sequence of each construct was verified independently by DNA sequence determination. The mutant integrase coding sequences from pBluescript II KS+ were then subcloned into pNLNgoMIVR^−ΔEnv LUC (between the KpnI and SalI sites) to produce the full-length mutant HIV-1 Integrase constructs. These DNA sequences were additionally checked independently by DNA sequence determination.

Setting [6] is: Human immunodeficiency virus 1, Table 8, WT IN, read-out: EC50 (nM, WT).
Setting [7] is: Table 8, read-out: EC50 (nM, IN mutants) G140S/Q148H.
Setting [8] is: Table 8, read-out: EC50 (nM, IN mutants) N155H.
[9] abbreviates: Table 8, read-out: EC50 (nM, IN mutants) Y143R.
Where [10] appears, read: Table 8, read-out: EC50 (nM, IN mutants) G118R.
Where [11] appears, read: Table 7, 3′-processing, read-out: IC50 (μM) 3′-P.
[12] abbreviates: Table 7, strand transfer, read-out: IC50 (μM) ST.
Where [13] appears, read: Human immunodeficiency virus 1, read-out: EC50 (nM), Table 9, WT, normal 5% serum.
Setting [14] is: Human immunodeficiency virus 1, Table 3, WT IN, read-out: EC50 (nM, WT).
Setting [15] is: Table 3, G140S-Q148H double mutant, read-out: EC50 (nM, IN Mutants) SH.
The mark [16] stands for this setting: Table 3, read-out: EC50 (nM, IN Mutants) N155H.
The mark [17] stands for this setting: Table 3, read-out: EC50 (nM, IN Mutants) Y143R.
The mark [18] stands for this setting: Table 6, read-out: EC50 (nM, IN Mutants) G118R.

As to `C[C@@H]1CCO[C@H]2Cn3cc(C(=O)NCc4ccc(F)cc4F)c(=O)c(O)c3C(=O)N12` [DTG, dolutegravir, reference compound], the IC50 (in general, the concentration that gives 50% inhibition) at HIV-1 integrase (Table 10, strand transfer, read-out: IC50 (nM, ST)) is 12.4 ± 2.6 nM. Further, the EC50 in test [1] (setting [6]) came to 1.6 nM; in test [2] (setting [7]) it was 5.8 nM; in test [3] (setting [8]), 3.6 nM; in test [4] (setting [9]) it was 4.3 nM; in test [5] (setting [10]) it was 13 ± 5 nM.

As to `O=C(NCc1ccc(F)cc1F)c1c(NCCO)c2cc(CCCCCO)cnc2n(O)c1=O` [XZ437, N-(2,4-Difluorobenzyl)-1-hydroxy-4-((2-hydroxyethyl)amino)-6-(5-hydroxypentyl)-2-oxo-1,2-dihydro-1,8-naphthyridine-3-carboxamide], the IC50 at HIV-1 integrase (setting [11]) amounted to 4000 ± 500 nM; at HIV-1 integrase (setting [12]), 2.5 ± 0.2 nM. In addition, the EC50 was found to be 13 nM in test [1] (setting [6]); 15.5 nM in test [2] (setting [7]); 15 nM in test [3] (setting [8]); 11.6 nM in test [4] (setting [9]); 23.9 nM in test [5] (setting [10]).

For `CC(=O)OCCCc1cnc2c(c1)c(N)c(C(=O)NCc1ccc(F)cc1F)c(=O)n2O` [XZ424, 3-(5-Amino-6-((2,4-difluorobenzyl)carbamoyl)-8-hydroxy-7-oxo-7,8-dihydro-1,8-naphthyridin-3-yl)propyl acetate], the results for the IC50 at HIV-1 integrase (setting [11]) and at HIV-1 integrase (setting [12]) were 14300 ± 2100 nM and 10.2 ± 1.6 nM, respectively. In addition, the EC50 stood at 1.4 nM in test [1] (setting [6]); 13 nM in test [2] (setting [7]); 5.4 nM in test [3] (setting [8]); 2.93 nM in test [4] (setting [9]); 5.9 nM in test [5] (setting [10]).

As to `Nc1c(C(=O)NCc2ccc(F)cc2F)c(=O)n(O)c2ncc(CCCCCCCCO)cc12` [XZ433, 4-Amino-N-(2,4-difluorobenzyl)-1-hydroxy-6-(8-hydroxyoctyl)-2-oxo-1,2-dihydro-1,8-naphthyridine-3-carboxamide], the results for the IC50 on HIV-1 integrase (setting [11]) and at HIV-1 integrase (setting [12]) were 32000 ± 6000 nM and 5.4 ± 0.8 nM, respectively. Moreover, the EC50 came to 3.7 nM in test [1] (setting [6]); 7.7 nM in test [2] (setting [7]); 6.5 nM in test [3] (setting [8]); 3.2 nM in test [4] (setting [9]); 11.1 nM in test [5] (setting [10]).

As for `Nc1c(C(=O)NCc2ccc(F)cc2F)c(=O)n(O)c2ncc(CCCCCCO)cc12` [XZ426, 4-Amino-N-(2,4-difluorobenzyl)-1-hydroxy-6-(6-hydroxyhexyl)-2-oxo-1,2-dihydro-1,8-naphthyridine-3-carboxamide], the IC50 at HIV-1 integrase (setting [11]) was 19000 ± 1000 nM; at HIV-1 integrase (setting [12]) it was 0.59 ± 0.11 nM. Further, the EC50 was 2.3 ± 0.6 nM in test [1] (setting [13]); 2.33 nM in test [1] (setting [6]); 9.4 nM in test [2] (setting [7]); 2.7 nM in test [3] (setting [8]); 2.1 nM in test [4] (setting [9]); 6.4 nM in test [5] (setting [10]).

For `COC(=O)CCc1cnc2c(c1)c(N)c(C(=O)NCc1ccc(F)cc1F)c(=O)n2O` [XZ434, Methyl 3-(5-amino-6-((2,4-difluorobenzyl)carbamoyl)-8-hydroxy-7-oxo-7,8-dihydro-1,8-naphthyridin-3-yl)propanoate], the IC50 was determined as 2900 ± 600 nM at HIV-1 integrase (setting [11]) and 1.8 ± 0.2 nM at HIV-1 integrase (setting [12]). The EC50 turned out to be 0.7 ± 0.2 nM in test [1] (setting [13]); 0.67 nM in test [1] (setting [6]); 5.3 nM in test [2] (setting [7]); 2.3 nM in test [3] (setting [8]); 0.67 nM in test [4] (setting [9]); 4.8 nM in test [5] (setting [10]).

As for `COC(=O)CCc1cnc2c(c1)c(NCCO)c(C(=O)NCc1ccc(F)cc1F)c(=O)n2O` [XZ438, Methyl 3-(6-((2,4-difluorobenzyl)carbamoyl)-8-hydroxy-5-((2-hydroxyethyl)amino)-7-oxo-7,8-dihydro-1,8-naphthyridin-3-yl)propanoate], the IC50 at HIV-1 integrase (setting [11]) is 3200 ± 300 nM; on HIV-1 integrase (setting [12]) it was 3.1 ± 0.3 nM. Also, the EC50 in test [1] (setting [6]) was found to be 4.1 ± 1 nM; in test [2] (setting [7]) it was 15.9 nM; in test [3] (setting [8]), 3.9 nM; in test [4] (setting [9]) it was 3.8 nM; in test [5] (setting [10]), 4.8 nM.

Consider `COC(=O)CNc1c(C(=O)NCc2ccc(F)cc2F)c(=O)n(O)c2ncccc12` [XZ379, Methyl 2-((3-((2,4-difluorobenzyl)carbamoyl)-1-hydroxy-2-oxo-1,2-dihydro-1,8-naphthyridin-4-yl)amino)acetate], for which the IC50 at HIV-1 integrase (Table 4, 3′-processing, read-out: IC50 (3^+-Processing)) was 710 ± 100 nM; at HIV-1 integrase (Table 4, strand transfer, read-out: IC50 (Strand Transfer)), 21 ± 11 nM. Also, the EC50 in test [1] (setting [13]) came to 3.8 ± 1.2 nM; in test [1] (setting [14]), 3.8 ± 1.2 nM; in test [2] (setting [15]), 35.5 ± 15.9 nM; in test [3] (setting [16]), 19 ± 6.9 nM; in test [4] (setting [17]), 4.6 ± 2.2 nM; in test [5] (setting [18]), 41.3 ± 18 nM. Also, the “Si (selectivity index)” value in test [1] (Table 3, ratio of CC50 to EC50) is reported as >25,000.

As for `Nc1c(C(=O)NCc2ccc(F)cc2F)c(=O)n(O)c2ncc(CCCO)cc12` [XZ423, 4-Amino-N-(2,4-difluorobenzyl)-1-hydroxy-6-(3-hydroxypropyl)-2-oxo-1,2-dihydro-1,8-naphthyridine-3-carboxamide], the values for the IC50 at HIV-1 integrase (setting [11]) and at HIV-1 integrase (setting [12]) were 4300 ± 600 nM and 11.3 ± 2.7 nM, respectively. In addition, the EC50 in test [1] (setting [6]) was found to be 3.1 nM; in test [2] (setting [7]), 13.4 nM; in test [3] (setting [8]) it was 8.5 nM; in test [4] (setting [9]), 2.8 nM; in test [5] (setting [10]), 10 nM.

As for `O=C(NCc1ccc(F)cc1F)c1c(O)c2cccnc2n(O)c1=O` [XZ351, N-(2,4-difluorobenzyl)-1,4-dihydroxy-2-oxo-1,2-dihydro-1,8-naphthyridine-3-carboxamide], the IC50 on HIV-1 integrase (Table 1, 3′-processing, read-out: IC50 Values 3′-Processing) was 1200 ± 200 nM; on HIV-1 integrase (Table 1, strand transfer, read-out: IC50 Values Strand transfer) it was 55 ± 8 nM. Also, the SI in test [1] is listed as 22,767. In addition, the “Si (selectivity index)” value in test [1] is 22,032. Also, the EC50 in test [1] (Human immunodeficiency virus 1, Table 2, cells infected with lentiviral vector harboring WT IN, read-out: EC50) was found to be 6 nM; in test [1] (setting [14]), 6.2 ± 2.9 nM; in test [2] (setting [15]), 308 ± 125 nM; in test [3] (setting [16]), 30.5 ± 7.76 nM; in test [4] (setting [17]), 11.3 ± 1.93 nM; in test [5] (setting [18]), 107 ± 40 nM. Besides, in test [2], the “Integrase Mutants SH (G140S-Q148H), fold-change in EC50 relative to WT” value came out at 50 x. Also, in test [3], the “Integrase Mutants N155H, fold-change in EC50 relative to WT” value is given as 5 x. Besides, in test [4], the “Integrase Mutants Y143R, fold-change in EC50 relative to WT” value stood at 2 x. In test [5], the “Integrase Mutants G118R, fold-change in EC50 relative to WT” value was 6 x.

As for `Nc1c(C(=O)NCc2ccc(F)cc2F)c(=O)n(O)c2ncc(CCCCCO)cc12` [XZ419, 4-Amino-N-(2,4-difluorobenzyl)-1-hydroxy-6-(5-hydroxypentyl)-2-oxo-1,2-dihydro-1,8-naphthyridine-3-carboxamide], the figures for the IC50 on HIV-1 integrase (setting [11]) and on HIV-1 integrase (setting [12]) were 8200 ± 1200 nM and 2.7 ± 0.4 nM, respectively. Moreover, the EC50 in test [1] (setting [13]) was found to be 1.3 ± 0.2 nM; in test [1] (setting [6]), 1.3 nM; in test [2] (setting [7]) it was 6.9 nM; in test [3] (setting [8]) it was 2.4 nM; in test [4] (setting [9]), 3 nM; in test [5] (setting [10]), 5.3 nM.
